Test results taken from patent publication US11065244B2, “Methods of use of tetrahydroberberine (THB)” (DIGNITY HEALTH, priority 2010, dated 2021).

What was measured:
Kir6.2/SUR2A = molecular target: T1, Kir6.2/SUR2A (Homo sapiens, UniProt O60706+Q14654); assay: Whole-cell voltage-clamp currents of KATP channel subtypes, cardiac type; format: cell-based; conditions: 100 μM perfused for 30 sec; currents at −100 mV; n=4
T1 construct: expressed in transfected cells
Experimental: (§1) Using whole-cell recordings in voltage-clamp mode, Command pulse protocol was set by the series test pulses with 100 ms duration that were applied between −100 and +50 mV in 10 mV steps from a holding potential of 0 mV (Top traces in FIG. 11, plots A-C). Representative effects of Ipt (100 μM perfused for 30 sec) on whole-cell current traces recorded from a cell expressed Kir6.2/SUR1 (A), Kir6.2/SUR2A (B) or Kir6.1/SUR2B (C). FIG. 11, plot D summarizes data for currents measured at −100 mV from A-C. Values are means±S.E.M. (n=4). *P<0.05, **P<0.01 vs. control.

[1] = molecular target: neuronal type and pancreatic type of KATP channels (Kir6.2SUR1) (Homo sapiens, UniProt Q09428+Q14654); conditions: relatively high concentrations; cited from earlier work
[2] = system: cardiac KATP channels (Kir6.1SUR2A); conditions: relevant low concentration; cited from earlier work
[3] = molecular target: vascular KATP channels (Kir6.1SRU2B) (Homo sapiens, UniProt O60706+Q15842); conditions: relevant low concentration; cited from earlier work
[4] = molecular target: T2, pancreatic β-cell KATP channels (Rattus norvegicus, UniProt P70673+Q09429); assay: Inside-out patch single channel recording in rat pancreatic β-cells, ATP free solution; format: cell-based; conditions: bath-applied
T2 construct: Single Channel Currents of KATP Channels in Rat Pancreatic β-Cells; from tissue; host or cells: rat pancreatic β-cells

Kir6.2SUR1 KATP channels = molecular target: T3, Kir6.2SUR1 KATP channels (Homo sapiens, UniProt Q09428+Q14654); assay: Patch-clamp cell attached single-channel recording of transfected Kir6.2SUR1 channels in HEK-293 cells; format: cell-based; conditions: 100 μM; control as 1; THB 6 patches, Ipt 8 patches
T3 construct: expressed in transfected cells; host or cells: HEK-293
Experimental: In β-cells, the dominant subtype of KATP is the Kir 6.2SUR1 subtype, as earlier described. Cells transiently transfected with the KATP Kir 6.2SUR1 channel subtype were evaluated for membrane potential and action potential firing using cell-attached recording in the presence or absence of 100 μm THB (FIG. 8A).
To further determine the effects of THB and Ipt on pancreatic β-cell-type KATP channels, the inventor examined the effects of THB or Ipt on the transfected Kir6.2SUR1 KATP channels in HEK-293 cells.

Kir6.2/SUR1 = molecular target: T4, Kir6.2/SUR1 (Homo sapiens, UniProt Q09428+Q14654); assay: Whole-cell voltage-clamp currents of KATP channel subtypes, pancreatic type; format: cell-based; conditions: 100 μM perfused for 30 sec; currents at −100 mV; n=4
T4 construct: expressed in transfected cells
Experimental: as §1

rat pancreatic islets = assay: Insulin release from rat pancreatic islets; format: cell-based; conditions: 100 μM; 5.5 mM glucose external; from 22.5±1.2
Experimental: With 5.5 mM glucose in the external solution, basal insulin secretion was measured. […] Bath application of 100 μM THB increased insulin secretion from 22.5±1.2 to 39.4±1.5 pg/islet/min (FIG. 5; P<0.01; 6 cells) and 100 μM Ipt increased insulin secretion from 22.5±1.2 to 34.5±1.8 pg/islet/min (FIG. 11; P<0.05; 7 cells).

Kir6.1/SUR2B = molecular target: T5, Kir6.1/SUR2B (Homo sapiens, UniProt O60706+Q15842); assay: Whole-cell voltage-clamp currents of KATP channel subtypes, vesicle type; format: cell-based; conditions: 100 μM perfused for 30 sec; currents at −100 mV; n=4
T5 construct: expressed in transfected cells
Experimental: as §1

[5] = molecular target: T2, pancreatic β-cell KATP channels; assay: Whole-cell KATP currents induced by ramp pulses in rat pancreatic β-cells; format: cell-based; conditions: 100 μM bath application; external glucose 5.5 mM; ramp −90 to −50 mV
Experimental: To determine whether or not THB and Ipt can block pancreatic β-cell KATP channels, whole-cell currents induced by repetitive ramp pulses from −90 to −50 mV (at 0.2 Hz) were recorded in voltage-clamp mode (external glucose=5.5 mM).

SNc DA neurons = assay: Perforated patch current-clamp recording of membrane potential and firing of dissociated SNc DA neurons, substance applied alone; format: cell-based, rat
Experimental: (§2) The protocol for preparation of single neurons from the rat SNc was approved by the Institutional Animal Care and Use Committee of the Barrow Neurological Institute. Single DA neurons were acutely dissociated from the SNc of 2-3-week-old Wistar rats following the protocol as previously described. Briefly, rats were anesthetized with isoflurane, and brain tissue was rapidly removed and immersed in cold (2-4° C.) dissection solution which contained: 136.7 mM NaCl, 5 mM KCl, 0.1 mM Na2HPO4, 0.2 mM KH2PO4, 9.84 mM HEPES, 16.6 mM D-glucose, 21.9 mM sucrose, pH 7.3, 330 mOsm, oxygenated with 100% O2 [8]. Three 400-μm coronal slices containing the SNc were cut using a vibrotome (Vibroslice 725M, WPI, Sarasota, Fla.). After cutting, slices were continuously bubbled with 95% O2-5% CO2 at room temperature (22±1° C.) for at least one hour in artificial cerebrospinal fluid (ACSF), which contained: 124 mM NaCl, 5 mM KCl, 24 mM NaHCO3, 1.3 mM MgSO4, 1.2 mM KH2PO4, 2.4 mM CaCl2, and 10 mM glucose, pH 7.4. Thereafter, slices were treated with pronase (1 mg per 6 ml) at 31° C. for 30 minutes in ACSF. The SNc was identified in a coronal slice using a stereo microscope with reference to the rat brain atlas, and was micro-punched out from slices using a well-polished needle. One punched piece was then transferred to a 35-mm culture dish filled with well-oxygenated standard extracellular solution, which contained: 150 mM NaCl, 5 mM KCl, 1 mM MgCl2, 2 mM CaCl2, 10 mM glucose 10, and 10 mM HEPES, pH 7.4 (with Tris-base). The punched piece was then dissociated mechanically using a fire-polished micro-Pasteur pipette under an inverted microscope (Olympus IX-70, Lake Success, N.Y.). The separated cells adhered to the bottom of the culture dish within 30 minutes. In the present study, we used only DA neurons that maintained their original morphological features of polygonal, large or medium somata with 2-4 thick primary dendritic processes were used.
Perforated patch whole-cell recording techniques were employed as previously described. Pipettes (3-5 MΩ) used for perforated patch recording were filled with intracellular recording solution containing 140 mM potassium gluconate, 10 mM KCl, 5 mM MgCl2, and 10 mM HEPES, pH 7.2 (with Tris-OH). The amphotericin B was freshly prepared to 200-240 μg/ml from a 40 mg/ml in DMSO stock. The liquid junction potential was 14 mV calculated using Clamplex 9.2 (Axon Instruments, Foster City, Calif.) and corrections were made for junction potentials post-hoc. After tight seal (>2 GΩ) formation, it usually took about 5-20 min to convert to perforated patch mode, and an access resistance of 20-60 MΩ was accepted to start the experiments. Series resistance was not compensated in this study. The data were filtered at 2 kHz, acquired at 10 kHz and digitized on-line (Digidata 1322 series A/D board, Axon Instruments, Foster City, Calif.). […] Drug application was performed using a computer-controlled “U-tube” system as previously described. All experiments were performed at room temperature (22±1° C.). To enable identification of single, dissociated SNc neurons after a patch-clamp recording session, the recording pipette was filled with a fluorescent dye (lucifer yellow CH, Sigma Chemical Co., St. Louis, Mo., 1.0 mg/ml in the recording electrode) in some experiments. After conversion from the perforated patch to the conventional whole-cell recording mode, the dye was ejected into the cytoplasm by a pulse (200 ms, 0.5 Hz) of hyperpolarizing current (1.0 nA) for 3 min. Labeled cells were visualized using epifluorescence microscopy. […]

[6] = system: D2 receptor and dopamine-opened K+ channels; assay: Dopamine-induced membrane potential hyperpolarization in dissociated SNc DA neurons; format: cell-based, rat
Experimental: All experiments were performed at room temperature (22±1° C.).

[7] = molecular target: T6, KATP channels in SNc DA neurons (Rattus norvegicus, UniProt P70673+Q09429); assay: Perforated patch current-clamp recording of rotenone-opened KATP channels in dissociated SNc DA neurons; format: cell-based; conditions: for altered membrane potential (depolarization) on rotenone-opened KATP channels, analog comparison: 100 μM, 6 neurons, FIG. 4B; for altered membrane potential in the presence of rotenone: FIG. 5C
T6 construct: functional KATP channels natively expressed on midbrain dopamine neurons; from tissue; host or cells: acutely dissociated dopaminergic neurons of rat substantia nigra pars compacta
Experimental: as §2
Perforated patch whole-cell recording techniques were employed as previously described. Pipettes (3-5 MΩ) used for perforated patch recording were filled with intracellular recording solution containing 140 mM potassium gluconate, 10 mM KCl, 5 mM MgCl2, and 10 mM HEPES, pH 7.2 (with Tris-OH). The amphotericin B was freshly prepared to 200-240 μg/ml from a 40 mg/ml in DMSO stock. The liquid junction potential was 14 mV calculated using Clamplex 9.2 (Axon Instruments, Foster City, Calif.) and corrections were made for junction potentials post-hoc. After tight seal (>2 GΩ) formation, it usually took about 5-20 min to convert to perforated patch mode, and an access resistance of 20-60 MΩ was accepted to start the experiments. Series resistance was not compensated in this study. The data were filtered at 2 kHz, acquired at 10 kHz and digitized on-line (Digidata 1322 series A/D board, Axon Instruments, Foster City, Calif.). […] Drug application was performed using a computer-controlled “U-tube” system as previously described. All experiments were performed at room temperature (22±1° C.). To enable identification of single, dissociated SNc neurons after a patch-clamp recording session, the recording pipette was filled with a fluorescent dye (lucifer yellow CH, Sigma Chemical Co., St. Louis, Mo., 1.0 mg/ml in the recording electrode) in some experiments. After conversion from the perforated patch to the conventional whole-cell recording mode, the dye was ejected into the cytoplasm by a pulse (200 ms, 0.5 Hz) of hyperpolarizing current (1.0 nA) for 3 min. Labeled cells were visualized using epifluorescence microscopy.
Under physiological conditions, the KATP channels are mostly closed. However, in the acutely-dissociated single neurons from rat SNc, there is background opening of KATP channels. […]

neuronal KATP channels = molecular target: T7, neuronal KATP channels (Rattus norvegicus, UniProt P70673+Q09429); assay: Rotenone-induced outward current in voltage-clamp mode in the presence of the D2 receptor antagonist sulpiride; format: cell-based; conditions: VH −30 mV, 6 neurons
T7 construct: functional KATP channels natively expressed on midbrain dopamine neurons; from tissue; host or cells: acutely dissociated dopaminergic neurons of rat substantia nigra pars compacta
Experimental: as §2, with “In the present study, we used only DA neurons that maintained their original morphological features of polygonal, large or medium somata with 2-4 thick primary dendritic processes were used.” left out
Perforated patch whole-cell recording techniques were employed as previously described. […] The liquid junction potential was 14 mV calculated using Clamplex 9.2 (Axon Instruments, Foster City, Calif.) and corrections were made for junction potentials post-hoc. […]

T6 sequence (P70673 whole entry): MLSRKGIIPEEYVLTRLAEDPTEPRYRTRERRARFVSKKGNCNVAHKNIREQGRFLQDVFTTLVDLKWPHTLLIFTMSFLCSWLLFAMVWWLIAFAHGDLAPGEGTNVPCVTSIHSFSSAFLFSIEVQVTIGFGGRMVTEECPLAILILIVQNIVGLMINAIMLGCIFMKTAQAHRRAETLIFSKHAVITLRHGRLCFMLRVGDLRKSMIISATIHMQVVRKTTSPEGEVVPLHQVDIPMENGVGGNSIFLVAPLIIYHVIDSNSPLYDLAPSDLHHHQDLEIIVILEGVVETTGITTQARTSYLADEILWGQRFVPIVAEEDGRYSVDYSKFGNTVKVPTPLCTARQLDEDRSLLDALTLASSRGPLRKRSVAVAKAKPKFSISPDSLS
T6 sequence (Q09429 whole entry): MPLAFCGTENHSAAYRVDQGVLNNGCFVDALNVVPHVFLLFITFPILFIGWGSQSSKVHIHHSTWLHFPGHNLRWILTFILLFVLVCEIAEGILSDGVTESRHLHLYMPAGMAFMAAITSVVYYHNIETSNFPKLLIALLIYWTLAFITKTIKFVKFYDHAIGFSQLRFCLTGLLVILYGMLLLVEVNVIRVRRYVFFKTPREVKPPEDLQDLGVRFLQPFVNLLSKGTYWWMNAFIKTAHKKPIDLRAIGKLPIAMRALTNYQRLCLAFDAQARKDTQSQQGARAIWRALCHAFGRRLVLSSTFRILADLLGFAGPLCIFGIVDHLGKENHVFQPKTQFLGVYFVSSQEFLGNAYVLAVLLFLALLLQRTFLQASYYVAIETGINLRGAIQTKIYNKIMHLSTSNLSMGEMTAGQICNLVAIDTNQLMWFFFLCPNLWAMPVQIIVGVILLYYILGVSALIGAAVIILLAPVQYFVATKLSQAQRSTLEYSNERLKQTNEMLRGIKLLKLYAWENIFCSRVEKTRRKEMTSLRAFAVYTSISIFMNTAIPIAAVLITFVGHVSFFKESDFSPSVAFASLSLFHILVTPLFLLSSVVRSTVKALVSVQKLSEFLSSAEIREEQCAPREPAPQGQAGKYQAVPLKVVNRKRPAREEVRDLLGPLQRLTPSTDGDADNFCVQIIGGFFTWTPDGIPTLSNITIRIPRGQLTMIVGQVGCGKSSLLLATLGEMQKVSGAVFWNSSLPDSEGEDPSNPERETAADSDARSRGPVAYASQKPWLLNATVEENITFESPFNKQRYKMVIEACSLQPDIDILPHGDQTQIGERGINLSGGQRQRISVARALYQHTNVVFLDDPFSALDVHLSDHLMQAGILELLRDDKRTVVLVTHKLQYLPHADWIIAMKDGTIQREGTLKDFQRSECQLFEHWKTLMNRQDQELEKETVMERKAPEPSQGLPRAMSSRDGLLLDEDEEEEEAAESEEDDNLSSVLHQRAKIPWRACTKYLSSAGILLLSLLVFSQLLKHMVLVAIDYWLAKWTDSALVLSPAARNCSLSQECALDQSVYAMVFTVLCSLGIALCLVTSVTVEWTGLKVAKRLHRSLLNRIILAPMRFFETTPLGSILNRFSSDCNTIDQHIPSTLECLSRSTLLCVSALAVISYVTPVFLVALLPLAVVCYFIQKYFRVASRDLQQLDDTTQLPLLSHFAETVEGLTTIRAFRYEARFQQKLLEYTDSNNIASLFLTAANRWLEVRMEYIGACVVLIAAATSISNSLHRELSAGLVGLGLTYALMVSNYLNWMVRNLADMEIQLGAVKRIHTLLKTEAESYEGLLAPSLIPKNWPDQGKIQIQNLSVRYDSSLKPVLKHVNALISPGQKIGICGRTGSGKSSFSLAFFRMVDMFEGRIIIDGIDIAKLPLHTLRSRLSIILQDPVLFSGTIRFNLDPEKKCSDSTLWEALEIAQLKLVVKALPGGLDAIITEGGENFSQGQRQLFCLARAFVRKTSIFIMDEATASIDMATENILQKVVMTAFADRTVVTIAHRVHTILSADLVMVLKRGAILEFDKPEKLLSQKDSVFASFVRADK
T2 sequence (P70673 whole entry): as the sequence (P70673 whole entry) above
T2 sequence (Q09429 whole entry): as the sequence (Q09429 whole entry) above
T7 sequence (P70673 whole entry): as the sequence (P70673 whole entry) above
T7 sequence (Q09429 whole entry): as the sequence (Q09429 whole entry) above
T5 sequence (Q15842 whole entry, the tested form may be a part): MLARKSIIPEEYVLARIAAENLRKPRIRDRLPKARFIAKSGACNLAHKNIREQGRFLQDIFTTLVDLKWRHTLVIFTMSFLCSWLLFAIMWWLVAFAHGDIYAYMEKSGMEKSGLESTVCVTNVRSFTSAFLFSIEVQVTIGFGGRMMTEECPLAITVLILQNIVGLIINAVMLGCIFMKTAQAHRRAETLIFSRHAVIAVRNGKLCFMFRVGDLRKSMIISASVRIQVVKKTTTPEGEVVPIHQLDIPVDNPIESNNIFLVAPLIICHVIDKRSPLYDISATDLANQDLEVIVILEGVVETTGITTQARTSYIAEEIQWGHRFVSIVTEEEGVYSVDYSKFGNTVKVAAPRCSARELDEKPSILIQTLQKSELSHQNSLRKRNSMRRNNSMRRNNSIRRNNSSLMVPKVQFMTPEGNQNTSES
T5 sequence (O60706 1-1549 isoform O60706-2): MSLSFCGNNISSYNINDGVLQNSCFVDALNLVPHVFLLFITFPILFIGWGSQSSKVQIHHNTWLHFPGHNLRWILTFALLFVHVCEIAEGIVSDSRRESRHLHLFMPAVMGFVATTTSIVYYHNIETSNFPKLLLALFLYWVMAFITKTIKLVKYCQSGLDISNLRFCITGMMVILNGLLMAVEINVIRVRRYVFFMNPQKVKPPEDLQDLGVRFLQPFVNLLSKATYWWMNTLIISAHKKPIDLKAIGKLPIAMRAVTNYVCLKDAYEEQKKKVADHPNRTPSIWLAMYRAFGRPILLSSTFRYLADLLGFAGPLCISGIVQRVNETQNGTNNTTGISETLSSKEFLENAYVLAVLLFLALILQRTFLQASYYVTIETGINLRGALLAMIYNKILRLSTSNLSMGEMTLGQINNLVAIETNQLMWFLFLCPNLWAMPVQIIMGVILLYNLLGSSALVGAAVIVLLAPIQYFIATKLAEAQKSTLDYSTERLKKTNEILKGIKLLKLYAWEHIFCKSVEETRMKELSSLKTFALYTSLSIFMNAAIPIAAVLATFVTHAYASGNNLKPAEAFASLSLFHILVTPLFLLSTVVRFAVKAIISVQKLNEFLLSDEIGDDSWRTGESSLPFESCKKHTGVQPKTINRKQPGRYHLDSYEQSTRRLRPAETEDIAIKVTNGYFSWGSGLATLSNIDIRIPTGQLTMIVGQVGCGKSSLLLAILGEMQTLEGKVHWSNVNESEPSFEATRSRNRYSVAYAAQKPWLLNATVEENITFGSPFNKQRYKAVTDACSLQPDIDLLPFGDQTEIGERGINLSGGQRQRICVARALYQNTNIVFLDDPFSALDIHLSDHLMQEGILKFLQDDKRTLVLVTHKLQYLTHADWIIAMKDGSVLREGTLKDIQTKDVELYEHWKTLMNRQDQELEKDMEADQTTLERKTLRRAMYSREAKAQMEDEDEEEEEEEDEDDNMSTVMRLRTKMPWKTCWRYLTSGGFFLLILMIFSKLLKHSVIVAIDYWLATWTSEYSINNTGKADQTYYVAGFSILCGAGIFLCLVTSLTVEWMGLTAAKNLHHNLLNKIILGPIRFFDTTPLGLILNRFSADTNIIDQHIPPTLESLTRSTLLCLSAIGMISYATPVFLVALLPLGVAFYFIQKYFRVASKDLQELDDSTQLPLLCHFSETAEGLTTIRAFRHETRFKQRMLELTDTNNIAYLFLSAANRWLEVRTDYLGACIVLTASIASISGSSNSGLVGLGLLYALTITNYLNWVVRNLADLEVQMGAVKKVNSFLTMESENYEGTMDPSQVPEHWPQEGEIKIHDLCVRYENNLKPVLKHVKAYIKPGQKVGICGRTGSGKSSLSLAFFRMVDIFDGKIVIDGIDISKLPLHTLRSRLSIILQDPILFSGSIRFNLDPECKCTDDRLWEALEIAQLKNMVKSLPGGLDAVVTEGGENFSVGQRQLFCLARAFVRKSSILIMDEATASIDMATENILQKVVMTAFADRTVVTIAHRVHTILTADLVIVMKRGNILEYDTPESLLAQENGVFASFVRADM
Chain of vascular KATP channels (Kir6.1SRU2B) (Q15842 whole entry): as the sequence (Q15842 whole entry, the tested form may be a part) above
Chain of vascular KATP channels (Kir6.1SRU2B) (O60706 1-1549 isoform O60706-2): as the sequence (O60706 1-1549 isoform O60706-2) above

CC(C)NC(C)(C)C(C)C [Ipt, Iptakalim]
effect on whole-cell current of Kir6.2/SUR2A (Kir6.2/SUR2A): opens cardiovascular types of KATP channels | concentration at which Ipt blocks neuronal type and pancreatic type of KATP channels [1]: > 30 µM | concentration at which Ipt weakly opens cardiac KATP channels [2]: < 10 µM | concentration at which Ipt mainly opens vascular KATP channels [3]: < 10 µM | effect on single channel activities opened by ATP free solution [4]: inhibited these single channel activities | normalized NPo value (Kir6.2SUR1 KATP channels): 0.50±0.02 | effect on whole-cell current of Kir6.2/SUR1 (Kir6.2/SUR1): blocks β-cell-type KATP channels | insulin secretion after bath application (rat pancreatic islets): 34.5±1.8 pg/islet/min | effect on whole-cell current of Kir6.1/SUR2B (Kir6.1/SUR2B): opens cardiovascular types of KATP channels | effect on β-cell KATP channel-mediated whole-cell currents [5]: reduced these β-cell KATP channel-mediated currents

CC1=Nc2ccc(Cl)cc2S(=O)(=O)N1 [dizoxide]
effect of KATP channel opener on membrane potential (SNc DA neurons; 300 μM (FIG. 3B legend)): hyperpolarized membrane potential

NCCc1ccc(O)c(O)c1 [dopamine]
membrane potential hyperpolarization by dopamine ([6]; 10 μM dopamine bath-application, 10 neurons, p<0.01): 10.5±1.1 mV

COc1cc2c(cc1O)[C@@H]1Cc3ccc(O)c(OC)c3CN1CC2 [l-SPD, l-stepholidine]
altered membrane potential (depolarization) on rotenone-opened KATP channels, analog comparison [7]: 8.4±1.4 mV

COc1cc2c(cc1OC)[C@@H]1Cc3ccc(OC)c(OC)c3CN1CC2 [l-THP, l-tetrahydropalmatine]
altered membrane potential (depolarization) on rotenone-opened KATP channels, analog comparison [7]: 3.4±0.5 mV

C=C(C)[C@H]1Cc2c(ccc3c2O[C@@H]2COc4cc(OC)c(OC)cc4[C@@H]2C3=O)O1 [rotenone]
membrane potential after perfusion of rotenone (SNc DA neurons; 1 μM rotenone for 1-3 min, averaged resting membrane potential −46.1±0.9 mV, 30 neurons, p<0.001): −61.1±0.9 mV | rotenone-induced outward current amplitude (neuronal KATP channels; in the presence of sulpiride): 125.8±37.1 pA

CCN1CCCC1CNC(=O)c1cc(S(N)(=O)=O)ccc1OC (centres unmarked) [sulpiride]
effect of D2 receptor antagonist alone on resting membrane potential (SNc DA neurons; exposure alone, neuronal firing rate was increased): did not clearly alter resting membrane potential

CCCCNC(=O)NS(=O)(=O)c1ccc(C)cc1 [tolbutamide]
membrane potential after exposure to substance alone (SNc DA neurons; 100 μM, before: THB −46.5±0.9 (n=7), tolbutamide −44.4±1.6 (n=5)): −44.1±1.8 mV | rotenone-induced outward current amplitude after addition of substance (neuronal KATP channels; 100 mM substance as printed, sulpiride present, from 125.8±37.1 pA, p<0.01): 45.8±23.7 pA | membrane potential after substance during persistent perfusion of rotenone ([7]; 1 μM rotenone, before: THB −61.7±1.3 (n=11), tolbutamide −61.6±1.2 (n=21), p<0.01): −52.5±1.1 mV | altered membrane potential in the presence of rotenone ([7]; 1 μM substance): 0.2±0.1 mV | altered membrane potential in the presence of rotenone ([7]; 10 μM substance): 4.4±0.3 mV | altered membrane potential in the presence of rotenone ([7]; 100 μM substance): 9.1±0.5 mV | Hill coefficient of concentration-effect relationship curve ([7]; membrane depolarization in the presence of rotenone): 2.1 | IC50 ([7]; membrane depolarization in the presence of rotenone, read-out: IC50 of concentration-effect relationship curve (block of KATP channels)): 10.4 µM | altered membrane potential on co-application with dopamine ([6]; difference THB vs tolbutamide p>0.05): 8.5±2.2 mV
